Measurements reported in patent US9725490B2, “ERAP1-derived peptide and use thereof” (TOKUSHIMA UNIVERSITY, priority 2011, dated 2017).

Experiments:
[1] = Stability of ERAP1-peptide in MCF-7 cells, immunoblotting; assay type: in vitro ADME, human
Description: FIG. 37 is a diagram illustrating the results of evaluations for the stability of the ERAP1-peptide and the influence of the ERAP1-peptide on cellular E2. […] MCF-7 cells were treated with 10 μM HA-tagged ERAP1-peptide. Then, immediately, the cells were temporally stimulated with 10 nM E2. The data are standardized with β-actin, and show the ratio when the value at 1 hour (n=1, 3) or at 3 hours (n=2) is designated as 100. […] MCF-7 cells were treated with 10 μM ERAP1-peptide. Then, immediately, the cells were temporally stimulated with 10 nM E2. The cell lysate was centrifuged, and then the supernatant and a precipitate lysed with methanol were mixed (final concentration of methanol: 10%), and the cellular E2 concentration was measured with a commercially available kit (17β-estradiol ELISA kit, Wako Pure Chemical Industries, Ltd.).

[2] = tested on: Tam-R MCF-7 tumor; assay: In vivo antitumor effect, Tam-R MCF-7 orthotopic transplant; design: species or system BALB/c nude mouse; details: intraperitoneal every day, E2 6 μg/day, day 21
From the text: FIG. 27 is a diagram illustrating the inhibition effect of the ERAP1-peptide on tumor proliferation in a mouse orthotopically transplanted with human breast cancer. […] KPL-3 cells were subcutaneously transplanted into the breast fat body of a BALB/c nude mouse. The treatment test (5 individuals/group) was initiated (day 0) when the volume of the tumor reached about 50-80 mm^3 in the absence of E2. To a cancerous mouse orthotopically transplanted with KPL-3C tumor, the ERAP1-peptide (Peptide: 14 mg/kg) or the ERAP1-scramble peptide (scrPeptide: 14 mg/kg) was administered every day by intraperitoneal injection. At the same time, E2 (6 μg/day) was administered subcutaneously every day. On day 14, the mouse was euthanatized, and the tumor was removed, and phosphorylation of PHB2/REA (S39) in each tumor was evaluated with immunoblotting analysis. […] The tamoxifen-resistant MCF7-cells (Tam-R MCF-7) were subcutaneously transplanted into the breast fat body of a BALB/c nude mouse, and the treatment test (5 individuals/group) was initiated (day 0) when the volume of the tumor reached about 50-80 mm^3 in the presence of tamoxifen (37 ng/day, 1.85 μg/kg). To a cancerous mouse orthotopically transplanted with Tam-R MCF-7 tumor, the ERAP1-peptide (Peptide: 3.5, 7 and 14 mg/kg) or the ERAP1-scramble peptide (scrPeptide: 14 mg/kg) was administered every day by intraperitoneal injection. […]

[3] = tested on: HDAC1; assay: Deacetylation (HDAC) assay of anti-PHB2 immunoprecipitate; assay type: cell-based, human; details: MCF-7, 24 hours
Description: FIG. 4-4 is a diagram illustrating that the ERAP1-peptide promotes nuclear translocation of PHB2. […] MCF-7 cells were treated with the ERAP1-peptide and/or 10 nM E2 for 24 hours. Then, the nuclear fraction was immunoprecipitated with anti-ERα antibody or an anti-PHB2 antibody. […] MCF-7 cells were treated with the ERAP1-peptide and/or E2 for 24 hours. Then, the cell lysate was immunoprecipitated with anti-PHB2 antibody. Subsequently, the HDAC activity in the immunoprecipitate was measured with a commercially available kit. The nuclear extract from the HeLa cells and PBS were used as a positive control (P) and as negative control (N), respectively.
HDAC assay was performed using HDAC Fluorescent Activity Assay/Drug Discovery Kit (Enzo Life Sciences, Plymouth Meeting, Pa., USA) in accordance with the instruction of the manufacturer. MCF-7 cells were treated with E2 and/or the ERAP1 peptide(s) for 24 hours in a 6-well plate. Then, the cell extract was immunoprecipitated with anti-PHB2 antibody. Furthermore, the immunoprecipitated cell extract was incubated for 30 minutes in the presence of a substrate at 30° C. After the incubation, the reaction was stopped, and the fluorescence was analyzed with a microplate fluorometer (Infinite M200, Tecan, Mannedorf, Switzerland).

[4] = tested on: ERα; assay: ERα down-regulation and polyubiquitination in MCF-7 cells; assay type: cell-based, human
Description: FIG. 4-5 is a diagram illustrating that the ERAP1-peptide promotes nuclear translocation of PHB2. […] Then, the protein level and the mRNA level for the expression of ERα were obtained by Western blotting (the upper panel: Protein) and semi-quantitative RT-PCR (the lower panel: mRNA), respectively. β-actin is a loading control for each. […] MCF-7 cells were treated with the ERAP1-peptide and/or E2 in the presence of 1 μM MG-132 for 1 hour. Then, the cell lysate was immunoprecipitated with anti-ERα antibody.
Down-regulation of ERα was evaluated by semi-quantitative reverse transcription PCR. Complete RNA was extracted using RNeasy Mini purification kit (Qiagen) from E2-treated cells in the presence or in the absence of the ERAP1 peptide, and reverse-transcribed into cDNA using Superscript II reverse transcriptase (Invitrogen), oligo dT primer (nvitrogen) and 25 mM dNTP Mixture (Invitrogen). mRNAs of ERα and β-actin were measured with GeneAmp PCR system (Applied Biosystems, Foster, Calif., USA). The primers are as described below: […]

[5] = tested on: ERα; assay: ERα down-regulation and polyubiquitination in KPL-3C cells; assay type: cell-based, human; details: in the presence of MG132
Description: FIG. 5 is a diagram illustrating the results of immunoblotting analysis by which the effects of the ERAP1-peptide in the down-regulation by polyubiquitination of ERα and proteasome decomposition were evaluated. The upper panel and the lower panel show the results obtained by the procedures described below. Namely, KPL-3C cells were treated with the ERAP1-peptide and/or 10 nM E2 for 1 hour. Then, the protein level and the mRNA level of ERα were examined by Western blotting and semi-quantitative RT-PCR. The results thereof are shown in the upper panel. β-actin is a loading control. Then KPL-3C cells were treated with the ERAP1-peptide and/or E2 in the presence of 1 μM MG-132 for 1 hour. Then, the cell lysate was immunoprecipitated with anti-ERα antibody. The results thereof are shown in the lower panel.

For CSCC[C@H](NC(=O)[C@H](CCC(N)=O)NC(=O)[C@H](CCCNC(=N)N)NC(=O)[C@H](CCCNC(=N)N)NC(=O)[C@H](CCCNC(=N)N)NC(=O)[C@H](CCCNC(=N)N)NC(=O)[C@H](CCCNC(=N)N)NC(=O)[C@H](CCCNC(=N)N)NC(=O)[C@H](CCCNC(=N)N)NC(=O)[C@H](CCCNC(=N)N)NC(=O)[C@H](CCCNC(=N)N)NC(=O)[C@H](CCCNC(=N)N)NC(=O)[C@@H](N)CCCNC(=N)N)C(=O)N[C@@H](CC(C)C)C(=O)N[C@@H](CO)C(=O)N[C@@H](CC(=O)O)C(=O)N[C@@H](CC(C)C)C(=O)N[C@H](C(=O)N[C@@H](CC(C)C)C(=O)N[C@@H](CCC(N)=O)C(=O)N[C@@H](CC(C)C)C(=O)N[C@@H](CCCNC(=N)N)C(=O)N[C@@H](CCC(N)=O)C(=O)N[C@@H](CCCNC(=N)N)C(=O)O)[C@@H](C)O [ERAP1-peptide], the “residual percentage of the ERAP1-peptide” value ([1]; 24 hours after the administration, on average) was 84%, the “residual percentage of the ERAP1-peptide” value ([1]; after 30 hours) was 56% and the “residual percentage of the ERAP1-peptide” value ([1]; after 36 hours) was 58%. The “residual percentage of the ERAP1-peptide” value ([1]; after 48 hours) was 54%, the half-life ([1]; human, in MCF-7 cells) was roughly 1800 min and the “antitumor effect (tumor volume)” value [2] was “The antitumor effect was recognized”. For the same compound, the “activity of HDAC1” value [3] was “accelerated dose-dependently”, the “decrease in the protein level of ERα after estrogen” value ([4]; MCF-7) was “the decrease thereof was suppressed” and the “polyubiquitination of ERα” value ([4]; MCF-7, E2, in the presence of MG132) was “polyubiquitination of ERα was inhibited”. The “protein decrease and polyubiquitination of ERα” value [5] was “suppression for protein decrease of ERα was similarly recognized with inhibition of polyubiquitination”.
